From US10316371B2, “Screening methods for identifying specific Staphylococcus aureus inhibitors” (TRANA DISCOVERY, INC., priority 2011, dated 2019)
Values after ≈ are worked out from the molar mass of the structure shown. Read-outs that look alike come from different tables or passages of the source.

Legend:
[1] = test system: E. coli 25922; experiment: MIC; type: cell-based; conditions: Escherichia coli; E. coli 25922; read-out: MIC
[2] = test system: K. pneumoniae UMM; experiment: MIC; type: cell-based; conditions: Klebsiella pneumoniae; K. pneumoniae UMM; read-out: MIC
[3] = test system: SA USA 300 (Methicillin-Resistant Staphylococcus aureus USA300); experiment: MIC; type: cell-based; conditions: SA USA 300, read-out: MIC
Description: (§1) The strains included Staphylococcus aureus, Methicillin Resistant (ATCC 33591), Methicillin-Resistant Staphylococcus aureus USA300, Staphylococcus aureus 158, Staphylococcus aureus 22, Staphylococcus aureus 2, Staphylococcus aureus (ATCC 29213), and Staphylococcus aureus 182.
(§2) A series of compounds were evaluated for their activity against drug resistant S. aureus, including MSSA and MRSA strains.

[4] = test system: SA 33591 (Staphylococcus aureus, Methicillin Resistant (ATCC 33591)); experiment: MIC; type: cell-based; conditions: ATCC33591, SA 33591, read-out: MIC
Description: as §1, §2

[5] = test system: SA 182 (Staphylococcus aureus 182); experiment: MIC; type: cell-based; conditions: SA 182, read-out: MIC
Description: as §1, §2

[6] = test system: SA 2 (Staphylococcus aureus 2); experiment: MIC; type: cell-based; conditions: SA 2, read-out: MIC
Description: as §1, §2

[7] = test system: SA 22 (Staphylococcus aureus 22); experiment: MIC; type: cell-based; conditions: SA 22, read-out: MIC
Description: as §1, §2

[8] = test system: SA 158 (Staphylococcus aureus 158); experiment: MIC; type: cell-based; conditions: SA 158, read-out: MIC
Description: as §1, §2

[9] = test system: SA 29213 (Staphylococcus aureus (ATCC 29213)); experiment: MIC; type: cell-based; conditions: ATCC29213, SA 29213, read-out: MIC
Description: as §1, §2

[10] = test system: K. pneumoniae 700603; experiment: MIC; type: cell-based; conditions: Klebsiella pneumoniae; K. pneumoniae 700603; read-out: MIC
[11] = test system: E. coli ESBL 4; experiment: MIC; type: cell-based; conditions: Escherichia coli, ESBL4; E. coli ESBL 4; read-out: MIC
[12] = test system: E. faecalis 29212; experiment: MIC; type: cell-based; conditions: Enterococcus faecalis; E. faecalis 29212; read-out: MIC
Description: (§3) The compounds were re-tested against other bacteria, including Staphylococcus epidermidis (ATCC 35984), Staphylococcus epidermidis (MRSE), E. faecium 134529, E. faecium 145494, […], E. faecium 161651, S. pneumoniae 49619, and S. pneumoniae 149389.
as §2

[13] = test system: S. epidermidis MRSE 01; experiment: MIC; type: cell-based; conditions: Staphylococcus epidermidis; S. epidermidis MRSE 01; read-out: MIC
Description: as §3, §2

[14] = test system: E. faecium 134529; experiment: MIC; type: cell-based; conditions: Enterococcus faecium; E. faecium 134529; read-out: MIC
Description: as §3, §2

[15] = test system: S. pneumoniae 49619; experiment: MIC; type: cell-based; conditions: Streptococcus pneumoniae; S. pneumoniae 49619; read-out: MIC
Description: as §3, §2

[16] = test system: S. epidermidis 35984; experiment: MIC; type: cell-based; conditions: Staphylococcus epidermidis; S. epidermidis 35984; read-out: MIC
Description: as §3, §2

[17] = test system: E. faecalis 161651; experiment: MIC; type: cell-based; conditions: Enterococcus faecalis; E. faecalis 161651; read-out: MIC
Description: as §3, §2

[18] = test system: S. pneumoniae 149389; experiment: MIC; type: cell-based; conditions: Streptococcus pneumoniae; S. pneumoniae 149389; read-out: MIC
Description: as §3, §2

[19] = test system: E. faecium 145494; experiment: MIC; type: cell-based; conditions: Enterococcus faecium; E. faecium 145494; read-out: MIC
Description: as §3, §2

[20] = test system: S. aureus specific Arg ASL (anticodon stem loop) RNA oligomer interaction with programmed ribosomes; experiment: Fluorescence polarization assay of Arg ASL / programmed ribosome complex (HTS and dose response); type: binding, S. aureus Arg ASL; E. coli 70S ribosomes; conditions: 6 pt dose response, fluorescence polarization after 4 hours at 25° C., corrected for auto-fluorescence
From the text: The assay requires the following materials: • Ribosomes—isolated from E. coli or S. aureus • fMet tRNA (Sigma or Chemical Block, Moscow) • mRNA (including the S-D sequence, the “box” sequence, the codon for methionine, and the codon for arginine that is specific for S. aureus, AGA, optionally with additional base pairs to the left of the S-D sequence and/or to the right of the codon for arginine) • Fluorescently labeled Arg ASL oliogomer • Buffer—HAM20,β • 384 well high binding micro titer plates (Matrix Technologies #4319, sold by Fischer Scientific as cat #50823855), or other appropriate plates for use in high throughput screening • Filtration (Sartorius Stedium 100 Kdalton VC 1042) or centrifugation for complex purification • EDTA—negative control (binding antagonist) • Neomycin—A-site binding enhancer (binding agonist)
A ribosome complex was prepared using the above materials and then purified prior to use in the assay. The prepared complex can be stored in concentrated form at −80° C. The complexes were diluted in buffer and dispensed onto plates. […] Fluorescence polarization was measured at approximately 4 hours after dispensing onto the micro-titer plates.
ASL^Arg was first heated for 2 min at 90° C. in water, after addition of 1/10 V of 10× buffer incubation continued on ice for at least 10 min. Prior to complex formation 70S ribosomes and tRNA were reactivated in buffer for 5 min at 45° C. followed by 10 min at 37° C.; mRNA was heated in buffer at 37° C. for 5 min. • (1000 μl×(2 μM E. coli 70S ribosomes+10 μM mRNA-Arg+4 μM tRNA^fmet)/HAM20,β→30 min @ 37° C.,+1000 μl×(0.2 μM neomycin+[…]))→20 min @ 37° C., overnight on ice • Final complex: (2000 pm P+2000 pm ASL)/2 ml=1 μM P+1 μM ASL HAM20,β:
Preparation of Complexes: The purified complex was diluted in ice cold HAM20,β such that the total fluorescence was approximately 2,000,000 units per 5 μL.
20 μl of the diluted complex was added to all 384 well plates (except for blank wells, which received 20 μL of HAM20 only, without complex) using Multidrop dispenser after which the plates were incubated at 25° C. for 4 hours (target 4.5 hours for middle of batch). Plates were then analyzed for fluorescence polarization in Analyst HT fluorescence plate reader and the following instrument settings:
The parallel and perpendicular fluorescence values of experimental wells were automatically corrected for the corresponding values obtained from the blank wells. The fluorescence polarization was calculated as following: P=(I−Ip)/(I+Ip), wherein Ip—is perpendicular fluorescence and I—is parallel fluorescence.
The percent of effect of experimental compounds was calculated as following: %-Inh=(P0−Pc)/(P0−P100)*100, wherein P0—is average polarization in 0%—inhibition control wells, P100—is average polarization in 100%—inhibition control wells, and Pc—is polarization in compound well.
The 3 sigma HTS hits were cherry picked and retested in 6 pt dose response format, using 3× serial dilution and the top nominal concentration of 100 uM.
The compounds were serially diluted in 10% DMSO and plated into 384 well plates (in a volume of 5 μL) to achieve the nominal final concentration raging from 100 μM to 0.4 μM. The plates received 20 μl of the diluted complex following incubation at 25° C. for 4 hours. Plates were then analyzed for fluorescence polarization as described above (see HTS section).
In parallel, the compounds were tested for auto-fluorescence. To this end, the compounds were plated (using the same dilution protocol) into 384 well plates. The plates received 20 μL of the HAM20 assay buffer only (without complex). The plates were incubated for 4 hrs and then were analyzed for fluorescence polarization as described above.

[21] = Mammalian Cell Toxicity; type: cell-based; conditions: mouse, 3T3 cells
[22] = Mammalian Cell Toxicity; type: cell-based; conditions: human, MRC5 cells

Row | MIC [1] [µg/mL] | MIC [2] [µg/mL] | MIC [3] [µg/mL] | MIC [4] [µg/mL] | MIC [5] [µg/mL] | MIC [6] [µg/mL] | MIC [7] [µg/mL] | MIC [8] [µg/mL] | MIC [9] [µg/mL] | MIC [10] [µg/mL] | MIC [11] [µg/mL] | MIC [12] [µg/mL] | MIC [13] [µg/mL] | MIC [14] [µg/mL] | MIC [15] [µg/mL] | MIC [16] [µg/mL] | MIC [17] [µg/mL] | MIC [18] [µg/mL] | MIC [19] [µg/mL] | Structure (SMILES) | CC50 [21] [µg/mL] | other results
1 | > 128 | > 128 | 64 (≈ 162 µM) | 64 (≈ 162 µM) | 64 (≈ 162 µM) | 128 (≈ 324 µM) | 64 (≈ 162 µM) | 64 (≈ 162 µM) | 64 (≈ 162 µM) | > 128 | > 128 | 128 (≈ 324 µM) | 128 (≈ 324 µM) | 128 (≈ 324 µM) | 32 (≈ 81.1 µM) | 128 (≈ 324 µM) | 128 (≈ 324 µM) | 64 (≈ 162 µM) | > 128 | O=C(O)C(c1ccccc1)N1C(=O)C(=Cc2c[nH]c3ccccc23)SC1=S (stereo not drawn) [Compound 537, [5-(1H-indol-3-ylmethylene)-4-oxo-2-thioxo-1,3-thiazolidin-3-yl](phenyl)acetic acid] | 20 to 64 (≈ 50.7 to 162 µM) | IC50 [20]: agonist; CC50 [22]: 38 µg/mL (≈ 96.3 µM)
2 | > 128 | > 128 | 128 (≈ 449 µM) | 128 (≈ 449 µM) | 128 (≈ 449 µM) | 32 (≈ 112 µM) | 32 (≈ 112 µM) | 128 (≈ 449 µM) | 64 (≈ 224 µM) | > 128 | > 128 | 128 (≈ 449 µM) | 64 (≈ 224 µM) | 64 (≈ 224 µM) | > 128 | 128 (≈ 449 µM) | 128 (≈ 449 µM) | > 128 | > 128 | CCN1C(=O)C2Cc3c([nH]c4ccccc34)CN2C1=S (stereo not drawn) [Compound #740, 2-ethyl-3-thioxo-2,3,5,6,11,11a-hexahydro-1H-imidazo[1′,5′:1,6]pyrido[3,4-b]indol-1-one] | 20 to 64 (≈ 70.1 to 224 µM) | IC50 ([20]; read-out: IC50): 44.2 µM; CC50 [22]: 62 µg/mL (≈ 217 µM)
3 | > 128 | > 128 | 128 (≈ 331 µM) | 32 (≈ 82.8 µM) | > 128 | 16 (≈ 41.4 µM) | 16 (≈ 41.4 µM) | 32 (≈ 82.8 µM) | 32 (≈ 82.8 µM) | > 128 | > 128 | 128 (≈ 331 µM) | 8 (≈ 20.7 µM) | 64 (≈ 166 µM) | > 128 | 64 (≈ 166 µM) | 128 (≈ 331 µM) | > 128 | > 128 | Oc1ccccc1N=Cc1c(O)c(Br)cc2oc3c(c12)CCCC3 [Compound 136, 3-bromo-1-{[(2-hydroxyphenyl)imino]methyl}-6,7,8,9-tetrahydrodibenzo[b,d]furan-2-ol] | 2.3 (≈ 5.95 µM) | IC50 ([20]; read-out: IC50): 80 µM; CC50 [22]: 6.8 µg/mL (≈ 17.6 µM)
